Measurements reported in ChEMBL document CHEMBL1201861, “Genomics of Drug Sensitity in Cancer screening data, Wellcome Trust Sanger Institute”.
pIC50: −log10 of the molar value. Structures can show the parent of a compound that is named as a salt.

What was measured:
COR-L23 = experiment: cells; assay type: functional, cell-based, Homo sapiens; details: Homo sapiens, COR-L23;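 further: cell viability assay measuring how strongly compounds suppress growth of COR-L23 cells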
Description: SANGER: Inhibition of human COR-L23 cell growth in a cell viability assay.

CP50-MEL-B = experiment: cells; assay type: functional, cell-based, Homo sapiens; details: Homo sapiens, CP50-MEL-B;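 further: growth inhibition of the human cell line, measured with a cell viability read-out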
Description: SANGER: Inhibition of human CP50-MEL-B cell growth in a cell viability assay.

CPC-N = experiment: cells; assay type: functional, cell-based, Homo sapiens; details: Homo sapiens, CPC-N;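 further: growth inhibition of CPC-N cells, with a cell viability assay as the readout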
Description: SANGER: Inhibition of human CPC-N cell growth in a cell viability assay.

Ca-Ski = experiment: cells; assay type: functional, cell-based, Homo sapiens; details: Homo sapiens, Ca-Ski;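 further: cell viability assay measuring inhibition of Ca-Ski cell growth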
Description: SANGER: Inhibition of human Ca-Ski cell growth in a cell viability assay.

DMS-153 = experiment: cells; assay type: functional, cell-based, Homo sapiens; details: Homo sapiens, DMS-153
Description: SANGER: Inhibition of human DMS-153 cell growth in a cell viability assay.

EB-3 = experiment: cells; assay type: functional, cell-based, Homo sapiens; details: Homo sapiens, EB-3;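 further: human EB-3 cells, growth inhibition read out via a cell viability assay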
Description: SANGER: Inhibition of human EB-3 cell growth in a cell viability assay.

G-402 = experiment: cells; assay type: functional, cell-based, Homo sapiens; details: Homo sapiens, G-402
Description: SANGER: Inhibition of human G-402 cell growth in a cell viability assay.

HuO-3N1 = experiment: cells; assay type: functional, cell-based, Homo sapiens; details: Homo sapiens, HuO-3N1;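 further: cell viability readout used to measure how strongly compounds suppress proliferation of human HuO-3N1 cells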
Description: SANGER: Inhibition of human HuO-3N1 cell growth in a cell viability assay.

K052 = experiment: cells; assay type: functional, cell-based, Homo sapiens; details: Homo sapiens, K052;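 further: Read-out from a cell viability assay, IC50 reflecting suppression of K052 cell growth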
Description: SANGER: Inhibition of human K052 cell growth in a cell viability assay.

MC-CAR = experiment: cells; assay type: functional, cell-based, Homo sapiens; details: Homo sapiens, MC-CAR;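 further: growth inhibition of the human MC-CAR cell line, read out by a cell viability assay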
Description: SANGER: Inhibition of human MC-CAR cell growth in a cell viability assay.

MDA-MB-157 = experiment: cells; assay type: functional, cell-based, Homo sapiens; details: Homo sapiens, MDA-MB-157
Description: SANGER: Inhibition of human MDA-MB-157 cell growth in a cell viability assay.

MDA-MB-231 = experiment: cells; assay type: functional, cell-based, Homo sapiens; details: Homo sapiens, MDA-MB-231
Description: SANGER: Inhibition of human MDA-MB-231 cell growth in a cell viability assay.

MFE-280 = experiment: cells; assay type: functional, cell-based, Homo sapiens; details: Homo sapiens, MFE-280;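 further: growth inhibition of MFE-280 cells, determined with a cell viability readout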
Description: SANGER: Inhibition of human MFE-280 cell growth in a cell viability assay.

NCCIT = experiment: SANGER: Inhibition of human NCCIT cell growth in a cell viability assay.; assay type: functional, cell-based; details: Homo sapiens, NCCIT
NCI-H1573 = experiment: cells; assay type: functional, cell-based, Homo sapiens; details: Homo sapiens, NCI-H1573;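 further: growth inhibition of NCI-H1573 cells, read out with a cell viability assay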
Description: SANGER: Inhibition of human NCI-H1573 cell growth in a cell viability assay.

NCI-H1651 = experiment: cells; assay type: functional, cell-based, Homo sapiens; details: Homo sapiens, NCI-H1651;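 further: Read-out is a cell viability assay, with IC50 expressing inhibition of NCI-H1651 cell growth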
Description: SANGER: Inhibition of human NCI-H1651 cell growth in a cell viability assay.

NCI-H187 = experiment: cells; assay type: functional, cell-based, Homo sapiens; details: Homo sapiens, NCI-H187;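 further: growth inhibition of NCI-H187 cells, read out as cell viability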
Description: SANGER: Inhibition of human NCI-H187 cell growth in a cell viability assay.

NCI-H1993 = experiment: cells; assay type: functional, cell-based, Homo sapiens; details: Homo sapiens, NCI-H1993;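 further: growth inhibition of the cancer cell line, assessed with a cell viability assay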
Description: SANGER: Inhibition of human NCI-H1993 cell growth in a cell viability assay.

NCI-H2342 = experiment: cells; assay type: functional, cell-based, Homo sapiens; details: Homo sapiens, NCI-H2342;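 further: growth inhibition of the cancer cell line, determined with a cell viability assay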
Description: SANGER: Inhibition of human NCI-H2342 cell growth in a cell viability assay.

NCI-H322M = experiment: cells; assay type: functional, cell-based, Homo sapiens; details: Homo sapiens, NCI-H322M;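 further: cell viability assay measuring inhibition of growth of human NCI-H322M cells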
Description: SANGER: Inhibition of human NCI-H322M cell growth in a cell viability assay.

NCI-H64 = experiment: cells; assay type: functional, cell-based, Homo sapiens; details: Homo sapiens, NCI-H64;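 further: growth inhibition of NCI-H64 cells, read out with a cell viability assay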
Description: SANGER: Inhibition of human NCI-H64 cell growth in a cell viability assay.

NCI-H719 = experiment: cells; assay type: functional, cell-based, Homo sapiens; details: Homo sapiens, NCI-H719;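 further: growth inhibition of the cultured cell line, read out with a viability assay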
Description: SANGER: Inhibition of human NCI-H719 cell growth in a cell viability assay.

OAW-42 = experiment: cells; assay type: functional, cell-based, Homo sapiens; details: Homo sapiens, OAW-42;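 further: growth inhibition of OAW-42 cells, read out with a cell viability assay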
Description: SANGER: Inhibition of human OAW-42 cell growth in a cell viability assay.

OVCAR-8 = experiment: cells; assay type: functional, cell-based, Homo sapiens; details: Homo sapiens, OVCAR-8;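 further: growth inhibition of human OVCAR-8 cells, read out by a cell viability assay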
Description: SANGER: Inhibition of human OVCAR-8 cell growth in a cell viability assay.

P31-FUJ = experiment: cells; assay type: functional, cell-based, Homo sapiens; details: Homo sapiens, P31-FUJ;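 further: growth inhibition of P31-FUJ cells, read out with a viability assay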
Description: SANGER: Inhibition of human P31-FUJ cell growth in a cell viability assay.

PANC-08-13 = experiment: cells; assay type: functional, cell-based, Homo sapiens; details: Homo sapiens, PANC-08-13
Description: SANGER: Inhibition of human PANC-08-13 cell growth in a cell viability assay.

SF-295 = experiment: cells; assay type: functional, cell-based, Homo sapiens; details: Homo sapiens, SF-295;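 further: growth inhibition of SF-295 cells, read out with a cell viability assay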
Description: SANGER: Inhibition of human SF295 cell growth in a cell viability assay.

SK-HEP1 = experiment: cells; assay type: functional, cell-based, Homo sapiens, SK-HEP-1; details: Homo sapiens, SK-HEP1;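 further: cell viability readout used to quantify reduction in proliferation of human SK-HEP-1 cells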
Description: SANGER: Inhibition of human SK-HEP-1 cell growth in a cell viability assay.

SK-MM-2 = experiment: cells; assay type: functional, cell-based, Homo sapiens; details: Homo sapiens, SK-MM-2;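 further: growth inhibition of human SK-MM-2 cells, read out with a cell viability assay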
Description: SANGER: Inhibition of human SK-MM-2 cell growth in a cell viability assay.

SKG-IIIa = experiment: cells; assay type: functional, cell-based, Homo sapiens; details: Homo sapiens, SKG-IIIa;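 further: cell growth inhibition, read out with a cell viability assay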
Description: SANGER: Inhibition of human SKG-IIIa cell growth in a cell viability assay.

SNU-387 = experiment: cells; assay type: functional, cell-based, Homo sapiens; details: Homo sapiens, SNU-387
Description: SANGER: Inhibition of human SNU-387 cell growth in a cell viability assay.

SW1783 = experiment: cells; assay type: functional, cell-based, Homo sapiens; details: Homo sapiens, SW1783
Description: SANGER: Inhibition of human SW1783 cell growth in a cell viability assay.

SW48 = experiment: cells; assay type: functional, cell-based, Homo sapiens; details: Homo sapiens, SW48;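 further: growth inhibition of SW48 cells, read out with a cell viability assay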
Description: SANGER: Inhibition of human SW48 cell growth in a cell viability assay.

SW756 = experiment: cells; assay type: functional, cell-based, Homo sapiens; details: Homo sapiens, SW756;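 further: growth inhibition of human SW756 cells, read out with a cell viability assay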
Description: SANGER: Inhibition of human SW756 cell growth in a cell viability assay.

SiHa = experiment: cells; assay type: functional, cell-based, Homo sapiens; details: Homo sapiens, SiHa;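 further: Viability-based readout of growth inhibition in SiHa cells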
Description: SANGER: Inhibition of human SiHa cell growth in a cell viability assay.

T98G = experiment: cells; assay type: functional, cell-based, Homo sapiens; details: Homo sapiens, T98G;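 further: growth inhibition of T98G cells, read out by a cell viability assay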
Description: SANGER: Inhibition of human T98G cell growth in a cell viability assay.

A204 = experiment: cells; assay type: functional, cell-based, Homo sapiens; details: Homo sapiens, A204;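 further: growth inhibition of human A204 cells, read out with a cell viability assay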
Description: SANGER: Inhibition of human A204 cell growth in a cell viability assay.

ASPC1 = experiment: cells; assay type: functional, cell-based, Homo sapiens; details: Homo sapiens, ASPC1;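 further: growth inhibition of AsPC-1 cells, read out with a cell viability assay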
Description: SANGER: Inhibition of human AsPC-1 cell growth in a cell viability assay.

BPH-1 = experiment: cells; assay type: functional, cell-based, Homo sapiens; details: Homo sapiens, BPH-1;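 further: cell viability assay measuring growth inhibition of human BPH-1 cells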
Description: SANGER: Inhibition of human BPH-1 cell growth in a cell viability assay.

CAL-12T = experiment: cells; assay type: functional, cell-based, Homo sapiens; details: Homo sapiens, CAL-12T;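 further: growth inhibition of human CAL-12T cells, read out with a cell viability assay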
Description: SANGER: Inhibition of human CAL-12T cell growth in a cell viability assay.

TUR = experiment: cells; assay type: functional, cell-based, Homo sapiens; details: Homo sapiens, TUR;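 further: growth inhibition of human TUR cells, read out with a cell viability assay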
Description: SANGER: Inhibition of human TUR cell growth in a cell viability assay.

U2OS = experiment: cells; assay type: functional, cell-based, Homo sapiens, U-2-OS; details: Homo sapiens, U2OS;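 further: growth inhibition of human U-2-OS cells, determined with a cell viability assay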
Description: SANGER: Inhibition of human U-2-OS cell growth in a cell viability assay.

UACC-893 = experiment: cells; assay type: functional, cell-based, Homo sapiens; details: Homo sapiens, UACC-893
Description: SANGER: Inhibition of human UACC-893 cell growth in a cell viability assay.

UMC-11 = experiment: cells; assay type: functional, cell-based, Homo sapiens; details: Homo sapiens, UMC-11;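 further: growth inhibition of UMC-11 cells, read out with a cell viability assay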
Description: SANGER: Inhibition of human UMC-11 cell growth in a cell viability assay.

VM-CUB-1 = experiment: cells; assay type: functional, cell-based, Homo sapiens; details: Homo sapiens, VM-CUB-1;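 further: cell viability assay measuring growth inhibition of the human VM-CUB-1 cell line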
Description: SANGER: Inhibition of human VM-CUB-1 cell growth in a cell viability assay.

In the case of `COc1cccc2c1C(=O)c1c(O)c3c(c(O)c1C2=O)C[C@@](O)(C(=O)CO)C[C@@H]3O[C@H]1C[C@H](N)[C@H](O)[C@H](C)O1` [DOXORUBICIN], the pIC50 (COR-L23) was 7.50, the pIC50 (CP50-MEL-B) was < 5.99 and the pIC50 (CPC-N) was 7.16. For the same compound, the pIC50 (Ca-Ski) was 7.35, the pIC50 (DMS-153) was 6.16 and the pIC50 (EB-3) was 6.11. For the same compound, the pIC50 (G-402) was 7.00, the pIC50 (HuO-3N1) was < 5.99 and the pIC50 (K052) was < 5.99. The pIC50 (MC-CAR) was 7.31, the pIC50 (MDA-MB-157) was 6.30 and the pIC50 (MDA-MB-231) was < 5.99. For the same compound, the pIC50 (MFE-280) was < 5.99, the pIC50 (NCCIT) was 7.70 and the pIC50 (NCI-H1573) was < 5.99. The pIC50 (NCI-H1651) was 7.93, the pIC50 (NCI-H187) was 6.31 and the pIC50 (NCI-H1993) was 6.00. The pIC50 (NCI-H2342) was 7.64, the pIC50 (NCI-H322M) was < 5.99 and the pIC50 (NCI-H64) was 6.88. The pIC50 (NCI-H719) was 7.40, the pIC50 (OAW-42) was 6.81 and the pIC50 (OVCAR-8) was 7.21. The pIC50 (P31-FUJ) was < 5.99, the pIC50 (PANC-08-13) was < 5.99 and the pIC50 (SF-295) was 7.31. For the same compound, the pIC50 (SK-HEP1) was 7.59, the pIC50 (SK-MM-2) was 6.03 and the pIC50 (SKG-IIIa) was 6.51. It also gave a pIC50 (SNU-387) of 6.63, a pIC50 (SW1783) of 7.01 and a pIC50 (SW48) of 7.30. For the same compound, the pIC50 (SW756) was 6.56, the pIC50 (SiHa) was < 5.99 and the pIC50 (T98G) was < 5.99. It also gave a pIC50 (A204) of 7.89, a pIC50 (ASPC1) of 6.07 and a pIC50 (BPH-1) of 7.66. For the same compound, the pIC50 (CAL-12T) was 7.69, the pIC50 (TUR) was 7.12 and the pIC50 (U2OS) was < 5.99. It also gave a pIC50 (UACC-893) of 6.28, a pIC50 (UMC-11) of 6.48 and a pIC50 (VM-CUB-1) of 7.12.
`Nc1ccn([C@@H]2O[C@H](CO)[C@@H](O)C2(F)F)c(=O)n1` [GEMCITABINE] was tested, and the pIC50 (COR-L23) was 7.85, the pIC50 (CP50-MEL-B) was < 5.99 and the pIC50 (CPC-N) was 6.48. For the same compound, the pIC50 (Ca-Ski) was 8.15, the pIC50 (DMS-153) was < 5.99 and the pIC50 (EB-3) was < 5.99. The pIC50 (G-402) was > 8.40, the pIC50 (HuO-3N1) was < 5.99 and the pIC50 (K052) was 6.86. For the same compound, the pIC50 (MC-CAR) was 7.94, the pIC50 (MDA-MB-157) was < 5.99 and the pIC50 (MDA-MB-231) was 7.56. The pIC50 (MFE-280) was < 5.99, the pIC50 (NCCIT) was 6.75 and the pIC50 (NCI-H1573) was < 5.99. The pIC50 (NCI-H1651) was 7.68, the pIC50 (NCI-H187) was < 5.99 and the pIC50 (NCI-H1993) was < 5.99. For the same compound, the pIC50 (NCI-H2342) was 8.12, the pIC50 (NCI-H322M) was < 5.99 and the pIC50 (NCI-H64) was 6.82. The pIC50 (NCI-H719) was 6.05, the pIC50 (OAW-42) was 7.04 and the pIC50 (OVCAR-8) was 8.10. For the same compound, the pIC50 (P31-FUJ) was < 5.99, the pIC50 (PANC-08-13) was < 5.99 and the pIC50 (SF-295) was 7.29. For the same compound, the pIC50 (SK-HEP1) was 8.21, the pIC50 (SK-MM-2) was 6.32 and the pIC50 (SKG-IIIa) was 6.09. The pIC50 (SNU-387) was 6.08, the pIC50 (SW1783) was > 8.40 and the pIC50 (SW48) was 6.33. The pIC50 (SW756) was 7.35, the pIC50 (SiHa) was < 5.99 and the pIC50 (T98G) was 6.27. The pIC50 (A204) was 7.95, the pIC50 (ASPC1) was < 5.99 and the pIC50 (BPH-1) was 7.69. The pIC50 (CAL-12T) was 8.96, the pIC50 (TUR) was 7.49 and the pIC50 (U2OS) was < 5.99. For the same compound, the pIC50 (UACC-893) was < 5.99, the pIC50 (UMC-11) was < 5.99 and the pIC50 (VM-CUB-1) was 7.46.
`COC1=CC(c2cc3ccccc3[nH]2)=N/C1=C\c1[nH]c(C)cc1C` [OBATOCLAX MESYLATE] showed a pIC50 (COR-L23) of 7.21, a pIC50 (CP50-MEL-B) of 7.06 and a pIC50 (CPC-N) of 5.70. It also gave a pIC50 (Ca-Ski) of 6.39, a pIC50 (DMS-153) of 5.66 and a pIC50 (EB-3) of 6.76. The pIC50 (G-402) was 6.25, the pIC50 (HuO-3N1) was 6.40 and the pIC50 (K052) was 6.03. For the same compound, the pIC50 (MC-CAR) was 7.63, the pIC50 (MDA-MB-157) was 6.08 and the pIC50 (MDA-MB-231) was 6.10. The pIC50 (MFE-280) was 6.02, the pIC50 (NCCIT) was 5.86 and the pIC50 (NCI-H1573) was 5.50. For the same compound, the pIC50 (NCI-H1651) was 6.30, the pIC50 (NCI-H187) was 5.23 and the pIC50 (NCI-H1993) was < 4.80. The pIC50 (NCI-H2342) was 7.29, the pIC50 (NCI-H322M) was < 4.80 and the pIC50 (NCI-H64) was 7.42. It also gave a pIC50 (NCI-H719) of 5.38, a pIC50 (OAW-42) of 6.67 and a pIC50 (OVCAR-8) of 7.51. The pIC50 (P31-FUJ) was < 4.80, the pIC50 (PANC-08-13) was 5.87 and the pIC50 (SF-295) was 6.47. It also gave a pIC50 (SK-HEP1) of 6.71, a pIC50 (SK-MM-2) of 6.24 and a pIC50 (SKG-IIIa) of 5.33. It also gave a pIC50 (SNU-387) of 6.04, a pIC50 (SW1783) of 6.71 and a pIC50 (SW48) of 6.11. It also gave a pIC50 (SW756) of 7.42, a pIC50 (SiHa) of 5.51 and a pIC50 (T98G) of 5.30. The pIC50 (A204) was 5.80, the pIC50 (ASPC1) was 5.13 and the pIC50 (BPH-1) was 6.25. For the same compound, the pIC50 (CAL-12T) was > 7.20, the pIC50 (TUR) was 5.94 and the pIC50 (U2OS) was < 4.80. The pIC50 (UACC-893) was 5.54, the pIC50 (UMC-11) was 5.85 and the pIC50 (VM-CUB-1) was 6.15.
